Measured values taken from article PMC11094793, “Discovery of LLC0424 as a Potent and Selective in Vivo NSD2 PROTAC Degrader” (Journal of Medicinal Chemistry, 2024).
Where two headings read alike, the source gives them in different places.

How the values were obtained:
[1] = test system: CRBN neo-substrates IKZF1, IKZF3, GSPT1, and CK-1α; assay: Selectivity immunoblotting in SEM cells: CRBN neo-substrates; assay type: cell-based, human; details: 2 μM, 8 h
Description: We conducted a global proteomic assay using tandem mass tags (TMT) labeled mass-spectrometry to unbiasedly quantify the protein change upon LLC0424 treatment in VCaP and RPMI-8402 cells. […] We further used SEM cell line to cross-validate the selectivity of LLC0424 for NSD2 over NSD1 and NSD3 as well as CRBN neo-substrates IKZF1, IKZF3, GSPT1, and CK-1α using immunoblotting. […] When we increased the treatment time of LLC0424 in SEM cells, we observed mild decrease of GSPT1 from 12 h (SI, Figure S3F).
After treatment, the cultured cells were collected and rinsed with phosphate-buffered saline (PBS) in room temperature. The cells were treated with RIPA buffers (ThermoFisher Scientific) supplemented with Halt Protease and Phosphatase Inhibitor Cocktail (ThermoFisher Scientific). After sonication and centrifugation, the total amount of protein in the cell lysates was measured by Pierce Bovine Serum Albumin Standard Pre-Diluted Set (ThermoFisher Scientific). After mixed with LDS-sample buffer (Invitrogen) supplemented with Sample Reducing Agent (Invitrogen) and heated in 70 °C for 10 min, equal amount of protein was loaded into NuPAGE 4–12%, Bis-Tris Protein Gel (ThermoFisher Scientific) or NuPAGE 3–8%, Tris-Acetate Protein Gel (ThermoFisher Scientific), and blotted with primary antibodies. […]

SEM cells [2] = assay: Cell viability assay (CellTiter-Glo, 7 days), SEM; assay type: cell-based, human; details: Homo sapiens, 168 h, read-out: IC50 (growth, cell viability)
Description: Cells were plated in 50 μL of the corresponding media in 96-well plates. A 2-fold dilution series of 2* concentrated LLC0424 was prepared in a medium with the highest concentration being 60 μM. Then 50 μL of the 2× compound-containing mixture was added to each well with 6 replicates for each concentration, reaching 1× concentration, with the highest concentration being 30 μM. The plate was incubated for 7 days. At the end point, the CellTiter-Glo assay (Promega) was then performed according to the manufacturer’s instruction to determine cell proliferation. The luminescence signal intensity of each well was acquired on an Infinite M1000Pro microplate reader and the data was analyzed using GraphPad Prism software (GraphPad Software).

SEM cells [3] = assay: Proliferation assay (CellTiter-Glo, 9 days), SEM; assay type: cell-based, human; details: 5 μM (Fig 6E) or 2 μM (Fig S4A)
Description: 2 × 10^3 cells per well were seeded in 5 replicates into 96-well plates and treated with 5 μM of the compound. Every 4 days, we added the compound with 5 μL of the 20* compound-containing mixture, reaching 1*concentration. Cell proliferation was evaluated by CellTiter-Glo assay (Promega).

NSD2 = biological target: T1, NSD2 (Homo sapiens, UniProt O96028); assay: Compound screening: NSD2 degradation by immunoblotting in VCaP cells; details: VCaP, 24 h
T1 sequence (O96028 1-1365): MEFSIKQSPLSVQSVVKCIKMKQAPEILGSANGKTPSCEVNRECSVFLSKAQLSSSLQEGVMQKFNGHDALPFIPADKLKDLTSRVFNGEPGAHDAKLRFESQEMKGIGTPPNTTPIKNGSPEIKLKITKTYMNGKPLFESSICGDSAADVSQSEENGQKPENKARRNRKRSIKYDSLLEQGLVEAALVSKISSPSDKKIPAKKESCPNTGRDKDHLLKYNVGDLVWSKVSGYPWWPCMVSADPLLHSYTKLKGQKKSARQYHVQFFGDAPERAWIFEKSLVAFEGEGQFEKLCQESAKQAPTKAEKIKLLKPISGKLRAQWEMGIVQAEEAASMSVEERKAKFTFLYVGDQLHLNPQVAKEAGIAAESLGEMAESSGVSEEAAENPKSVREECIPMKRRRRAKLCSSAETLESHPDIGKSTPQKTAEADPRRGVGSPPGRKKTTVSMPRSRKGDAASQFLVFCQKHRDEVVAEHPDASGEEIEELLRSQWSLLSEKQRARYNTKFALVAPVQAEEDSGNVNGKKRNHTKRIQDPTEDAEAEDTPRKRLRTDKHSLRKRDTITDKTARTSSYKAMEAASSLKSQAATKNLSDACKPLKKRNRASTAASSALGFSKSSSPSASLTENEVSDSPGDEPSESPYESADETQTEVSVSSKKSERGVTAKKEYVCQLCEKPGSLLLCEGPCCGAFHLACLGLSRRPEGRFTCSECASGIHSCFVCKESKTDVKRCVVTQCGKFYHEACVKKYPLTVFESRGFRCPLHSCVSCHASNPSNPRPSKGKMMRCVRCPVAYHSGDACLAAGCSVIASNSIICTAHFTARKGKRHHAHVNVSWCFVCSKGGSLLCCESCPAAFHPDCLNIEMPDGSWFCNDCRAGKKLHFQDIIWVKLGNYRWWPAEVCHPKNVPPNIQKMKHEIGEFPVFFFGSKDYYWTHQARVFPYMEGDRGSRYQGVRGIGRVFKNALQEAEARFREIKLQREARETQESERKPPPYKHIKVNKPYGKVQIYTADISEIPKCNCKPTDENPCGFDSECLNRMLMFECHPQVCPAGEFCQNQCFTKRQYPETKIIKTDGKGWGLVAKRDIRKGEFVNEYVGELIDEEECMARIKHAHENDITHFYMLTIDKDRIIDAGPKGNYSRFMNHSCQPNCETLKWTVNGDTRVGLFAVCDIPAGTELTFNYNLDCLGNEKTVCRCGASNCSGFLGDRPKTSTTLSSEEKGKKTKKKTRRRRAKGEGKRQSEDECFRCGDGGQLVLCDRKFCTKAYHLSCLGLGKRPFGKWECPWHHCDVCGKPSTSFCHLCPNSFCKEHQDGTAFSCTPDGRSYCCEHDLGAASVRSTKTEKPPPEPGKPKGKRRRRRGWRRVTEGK
Description: After treatment, the cultured cells were collected and rinsed with phosphate-buffered saline (PBS) in room temperature. The cells were treated with RIPA buffers (ThermoFisher Scientific) supplemented with Halt Protease and Phosphatase Inhibitor Cocktail (ThermoFisher Scientific). After sonication and centrifugation, the total amount of protein in the cell lysates was measured by Pierce Bovine Serum Albumin Standard Pre-Diluted Set (ThermoFisher Scientific). […] After incubated with HRP-conjugated secondary antibodies, the membranes were developed with ECL Prime Western Blotting Detection Reagent (cytiva) and imaged on Odyssey Fc Imager (LiCOR Biosciences).
Western blot was then performed as previously described to detect NSD2 degradation.

With O=C1CCC(N2C(=O)c3ccc(N4CCC(NC(=O)c5ccc(NC(=O)c6ccc(CN(C(=O)c7ccc8c(c7)OCC(=O)N8)C7CC7)cc6)cc5)CC4)cc3C2=O)C(=O)N1 (centres unmarked) [compound 10l, N-Cyclopropyl-N-(4-((4-((1-(2-(2,6-dioxopiperidin-3-yl)-1,3-dioxoisoindolin-5-yl)piperidin-4-yl)carbamoyl)phenyl)carbamoyl)benzyl)-3-oxo-3,4-dihydro-2H-benzo[b][1,4]oxazine-7-carboxamide] the “CRBN neo-substrates protein level” value [1] was “remained unchanged”, the IC50 (SEM cells [2]) was 3.56 µM and the “cell growth on treatment for 9 days” value (SEM cells [3]) was “significantly inhibited”. It also gave a Dmax at 2 µM (NSD2; read-out: 2.0 μM Degradation % (VCaP)) of 95% and a Dmax at 2 µM (NSD2; read-out: % Degradation) of 95%.
